This note sets out measurements from US20180186742A1, “PICOLINAMIDES AS FUNGICIDES” (Dow AgroSciences LLC, priority 2017, published 2018).

Like-named read-outs stand apart in the source and are kept apart here. A value given as a limit tells only on which side of the number the result lay.

Holding throughout (type): in vivo
Test [1] relates to Puccinia triticina. Nature of the test: Wheat brown rust (PUCCRT), disease control on wheat seedlings. The settings on record: low volume application at 121.5 g/H. In short, it runs like this:
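Compounds in acetone, diluted with nine volumes of water containing 110 ppm Triton X-100, sprayed to run-off on first-leaf Yuma wheat seedlings; track-spray tests used EC formulations with 0.1% Trycol 5941. Puccinia triticina spores applied before or after treatment. Overnight dark dew room at 22° C, 100% humidity, then greenhouse at 24° C.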

Test [2] has as its system Phakopsora pachyrhizi. Nature of the test: Asian soybean rust (PHAKPA), disease control on soybean seedlings. The settings on record: High volume application at 25 ppm. In short, it runs like this:
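Two-week-old Williams 82 soybean seedlings were sprayed to run-off with compound in acetone/water (1:9) containing 0.011% Tween 20. Inoculation was 3 days before (curative) or 1 day after (protectant) treatment, followed by 24 h dark dew at 22 °C, 100% RH, then 23 °C; disease severity scored on sprayed leaves.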

For test [3], the system named is Zymoseptoria tritici. Kind of test: Leaf blotch of wheat (SEPTTR), disease control on wheat seedlings. The settings on record: low volume application at 121.5 g/H. In short, it runs like this:
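Z. tritici spores were inoculated onto wheat seedlings (Yuma, first leaf emerged) either before or after treatment. Treatment was an automated spray to run-off of acetone/Triton X-100 water solutions, or a track spray of EC formulations with 0.1% Trycol 5941. Plants were held in dew chambers at 20 °C and then a greenhouse at 20 °C. First-leaf severity (0–100%) was converted to percent control against untreated plants.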

Setting [4] is: 24 h, 1 Day Protectant, read-out: PUCCRT disease control, 1DP, LV activity.
[5] abbreviates: 72 h, 3 Day Curative, read-out: PUCCRT disease control, 3DC, LV activity.
[6] abbreviates: 24 h, 1 Day Protectant, read-out: PHAKPA 1DP disease control rating.
[7] abbreviates: 72 h, 3 Day Curative, read-out: PHAKPA 3DC disease control rating.
[8] abbreviates: 24 h, 1 Day Protectant, read-out: SEPTTR disease control, 1DP, LV activity.
The mark [9] stands for this setting: 72 h, 3 Day Curative, read-out: SEPTTR disease control, 3DC, LV activity.
The mark [10] stands for this setting: 24 h, 1 Day Protectant, wheat brown rust, read-out: PUCCRT 1DP disease control, LV activity.
The mark [11] stands for this setting: 72 h, 3 Day Curative, wheat brown rust, read-out: PUCCRT 3DC disease control, LV activity.
[12] abbreviates: 24 h, 1 Day Protectant, wheat leaf blotch, read-out: SEPTTR 1DP disease control, LV activity.
Setting [13] is: 72 h, 3 Day Curative, wheat leaf blotch, read-out: SEPTTR 3DC disease control, LV activity.

For `COc1ccnc(C(=O)N[C@@H](C)C(=O)O[C@@H](C)[C@@H](c2ccc(F)cc2C)C2CCCC2)c1OCOC(C)=O` [Compound 193], the pest or weed control at 121.5 g/ha in test [1] (setting [4]) is less than 80%; in test [1] (setting [5]), less than 80%; in test [3] (setting [8]), less than 0%; in test [3] (setting [9]), less than 80%. Moreover, the pest or weed control at 25 ppm in test [2] (setting [6]) and in test [2] (setting [7]) was less than 80% each time.
Take `COc1ccnc(C(=O)N[C@@H](C)C(=O)O[C@@H](C)[C@H](c2ccc(OC(C)C)cc2)C(C)C)c1OCOC(C)=O` [Compound 379]: the pest or weed control at 121.5 g/ha is more than 80% in test [1] (setting [10]), less than 80% in test [1] (setting [11]), less than 80% in test [3] (setting [12]) and less than 80% in test [3] (setting [13]). The pest or weed control at 25 ppm in test [2] (setting [6]) and in test [2] (setting [7]) was less than 80% throughout.
With `COc1ccnc(C(=O)N[C@@H](C)C(=O)O[C@@H](C)[C@@H](c2ccc(C)cc2C)C2CCC2)c1OC(C)=O` [Compound 241], the pest or weed control at 121.5 g/ha was less than 80% in test [1] (setting [4]), less than 80% in test [1] (setting [5]), less than 0% in test [3] (setting [8]) and more than 80% in test [3] (setting [9]). The pest or weed control at 25 ppm in test [2] (setting [6]) and in test [2] (setting [7]) was less than 80% throughout.
For `COc1ccnc(C(=O)N[C@@H](C)C(=O)O[C@@H](C)[C@@H](c2ccc(C)cc2C)C2CCCCC2)c1OC(C)=O` [Compound 202], the pest or weed control at 121.5 g/ha is more than 80% in test [1] (setting [4]), less than 0% in test [1] (setting [5]), less than 80% in test [3] (setting [8]) and less than 80% in test [3] (setting [9]). For the same molecule, the pest or weed control at 25 ppm in test [2] (setting [6]) is less than 80%; in test [2] (setting [7]), less than 0%.
As to `COc1ccnc(C(=O)N[C@@H](C)C(=O)O[C@@H](C)[C@@H](c2ccc(C)cc2C)C2CCCC2)c1OCOC(C)=O` [Compound 205], the pest or weed control at 121.5 g/ha in test [1] (setting [4]) was more than 80%; in test [1] (setting [5]), less than 0%; in test [3] (setting [8]), less than 80%; in test [3] (setting [9]) it was less than 80%. In addition, the pest or weed control at 25 ppm was less than 80% in test [2] (setting [6]) and less than 0% in test [2] (setting [7]).
With `CCC(CC)[C@H](c1ccc(F)cc1OC)[C@H](C)OC(=O)[C@H](C)NC(=O)c1nccc(OC)c1OC(C)=O` [Compound 222], the pest or weed control at 121.5 g/ha in test [1] (setting [4]) is more than 80%; in test [1] (setting [5]), less than 80%; in test [3] (setting [8]), more than 80%; in test [3] (setting [9]), more than 80%. Also, the pest or weed control at 25 ppm was more than 80% in test [2] (setting [6]) and less than 80% in test [2] (setting [7]).
Turning to `COc1ccnc(C(=O)N[C@@H](C)C(=O)O[C@@H](C)[C@H](c2ccc(C)cc2C)C(C)C)c1OC(C)=O` [Compound 362], the pest or weed control at 121.5 g/ha in test [1] (setting [4]), in test [1] (setting [5]), in test [3] (setting [8]) and in test [3] (setting [9]) was more than 80% in each case. Further, the pest or weed control at 25 ppm in test [2] (setting [6]) and in test [2] (setting [7]) was more than 80% each time.
With `COc1ccnc(C(=O)N[C@@H](C)C(=O)O[C@@H](C)[C@H](c2ccc3c(c2)OCO3)C(C)C)c1OC(C)=O` [Compound 380], the pest or weed control at 121.5 g/ha in test [1] (setting [10]) was more than 80%; in test [1] (setting [11]) it was more than 80%; in test [3] (setting [12]), less than 80%; in test [3] (setting [13]), less than 80%. Also, the pest or weed control at 25 ppm in test [2] (setting [6]) and in test [2] (setting [7]) was less than 80% throughout.
On to `COc1ccnc(C(=O)NCC(=O)O[C@@H](C)[C@H](c2ccc(F)cc2C)C(C)C)c1OC(C)=O` [Compound 346], for which the pest or weed control at 121.5 g/ha was more than 80% in test [1] (setting [4]), more than 80% in test [1] (setting [5]), less than 80% in test [3] (setting [8]) and less than 80% in test [3] (setting [9]). Moreover, the figures for the pest or weed control at 25 ppm in test [2] (setting [6]) and in test [2] (setting [7]) were more than 80% and less than 80%, respectively.
